Reference: US20260176249A1, “PROTEIN KINASE INHIBITOR, PREPARATION METHOD THEREFOR, AND APPLICATION THEREOF” (SHANDONG LUYE PHARMACEUTICAL CO., LTD., priority 2021, published 2026)
pIC50: −log10 of the molar value. Read-outs that look alike come from different tables or passages of the source.

Columns and labels:
[1] = Permeability and efflux transporter substrate evaluation in Caco-2 cells; format: in vitro ADME; set-up: Papp A→B at 120 min / Papp B→A at 120 min / efflux ratio at 120 min / Papp at 120 min: dose or concentration left out as unconfirmed; details: human; for efflux ratio at 120 min / Papp at 120 min: Caco-2, pH 7.4; for Papp at 120 min: read-out: Classification Permeability; for Papp A→B at 120 min / Papp B→A at 120 min: pH 7.4, pH 7.40; for Papp A→B at 120 min: Caco-2, apical to basolateral; for Papp B→A at 120 min: Caco-2, basolateral to apical
Experimental: (§1) The cells were cultured in a carbon dioxide incubator for 21-28 days before being used for transport experiments. During this period, the culture medium was changed every four to five days.
(§2) This project uses Hank's balanced salt buffer (pH 7.40±0.05) containing 10 mM HEPES as the transport buffer. The culture medium was removed from the culture plate and the cells were washed twice with preheated transport buffer (approximately 75 μL and 40 mL of transport buffer for each apical well and basolateral receiver plate respectively). The donor solution and receiver solution were added to the corresponding cell plate wells (75 and 250 μL for each apical and basolateral well respectively), and the bidirectional transport experiment was started (apical to basolateral (A-B) and basolateral to apical (B-A)). The test concentration of the test substance was […], and two replicate wells were made for each dosing concentration. The test concentration of Digoxin was […], with dosing bidirectionally; the test concentrations of nadolol and metoprolol were both […], and they were dosed in one direction (A-B direction), and two replicate wells were made for each of the three control compounds.
(§3) The initial donor solution is the TO sample. After adding the sample, it was mixed with the transport buffer and stop solution in a certain proportion.
(§4) All samples were vortexed, and then centrifuged at 3220×g for 20 min at 20° C. A proper volume of supernatant was transferred to a sample assay plate, and the sample was stored at 2-8° C. if it was not analyzed immediately after the plate was sealed, and LC MS/MS method was used for analysis.
(§5) The Lucifer Yellow Rejection Assay was used to test the integrity of the Caco-2 cell layer.
(§6) The following formulas were used to calculate the apparent permeability coefficient (Papp, cm/s), efflux ratio (ER), and solution recovery (%) (% Solution Recovery).
(§7) [formula] [formula] [formula] • VR is the volume of the receiver side solution (side A is 0.075 mL, side B is 0.25 mL); Area is the relative surface area of the cell monolayer (0.0804 cm^2); Time is the incubation time (7200 s); C0 is the initial concentration (nM) of the test substance at the donor side or the peak area ratio of the control compound; VD is the volume of the donor side (side A is 0.075 mL, side B is 0.25 mL); CD and CR are the final concentration (nM) of the test substance at the donor side and the receiver side respectively or the peak area ratio of the control compound; • Lucifer yellow transmittance rate (% Lucifer Yellow) is calculated using the following formula:
(§8) [formula] • RFUApical and RFUBasolateral are the relative fluorescence intensity of lucifer yellow at the apical and basolateral sides respectively. VApical and VBasolateral are the sample loading volumes at the apical and basolateral sides respectively (0.075 and 0.25 mL respectively).

Caco-2 cells = test: as above; format: in vitro ADME; set-up: Papp A→B at 120 min / Papp B→A at 120 min / efflux ratio at 120 min / Papp at 120 min: dose or concentration left out as unconfirmed; details: Caco-2
Experimental: as §1, §2, §3, §4, §5, §6, §7, §8

PLK1 kinase = molecular target: T1, PLK1 kinase (Homo sapiens, UniProt P53350); test: Inhibitory activity on PLK1 kinase; format: biochemical; details: for Imax: maximum effect caused by the compound at the test concentration
T1 construct: purchased Carnabio (Carna Biosciences) 05-157
T1 sequence (P53350 whole entry): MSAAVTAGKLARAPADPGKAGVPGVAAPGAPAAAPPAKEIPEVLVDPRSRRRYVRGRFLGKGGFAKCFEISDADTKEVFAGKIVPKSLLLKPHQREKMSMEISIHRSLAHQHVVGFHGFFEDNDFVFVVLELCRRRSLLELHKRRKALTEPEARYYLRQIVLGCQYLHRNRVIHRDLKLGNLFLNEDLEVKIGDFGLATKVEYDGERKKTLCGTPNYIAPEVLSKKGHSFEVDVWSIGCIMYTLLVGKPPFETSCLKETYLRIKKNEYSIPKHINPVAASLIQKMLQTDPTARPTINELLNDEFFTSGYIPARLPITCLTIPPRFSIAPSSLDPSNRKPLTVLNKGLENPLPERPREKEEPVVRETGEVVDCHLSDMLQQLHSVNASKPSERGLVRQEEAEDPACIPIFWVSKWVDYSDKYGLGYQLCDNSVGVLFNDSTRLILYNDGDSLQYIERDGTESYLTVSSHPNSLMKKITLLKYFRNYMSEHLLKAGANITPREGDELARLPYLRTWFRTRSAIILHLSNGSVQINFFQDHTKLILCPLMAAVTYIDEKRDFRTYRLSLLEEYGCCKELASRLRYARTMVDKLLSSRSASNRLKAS
Experimental: Detection solution PerkinElmer #TRF0218-M
Detection instrument PerkinElemer EnVision
a. Using the Echo machine, the compounds to be tested were diluted by 1:3 on a 384-well plate, and the highest concentration was 1 μM, with a total of 10 concentration points, and each concentration was tested in duplicate wells.
b. 5 μL/well of PLK1 kinase and peptide substrate mixture were added to the assay plate (containing controls).
d. The reaction was initiated by adding 5 μL/well of ATP solution;
e. The assay plate was centrifuged at 1000 rpm for about 15 seconds, a film was used to seal the assay plate which was incubated at 23° C. for a period of time;
f. A detection solution was added to all wells of the assay plate;
g. The assay plate was centrifuged at 1000 rpm for approximately 15 seconds, a film was used to seal the assay plate which was incubated at 23° C. for 60 min.
h. The assay plate was read on EnVision. The test results were analyzed using XLFIT5 software.

HCT116 cells = test: Inhibitory activity on HCT116 cell proliferation (ATPlite); format: cell-based; details: Homo sapiens
Experimental: Cell culture medium: RPMI1640+10% FBS (GBICO)
Cell culture plate: 96-well plate (Shanghai Jingan Biotechnology Co., Ltd.)
Detection kit: ATPlite 1step Luminescence (PerkinElmer)
Detection instrument: BioTek multifunctional microplate reader
2. Test method: HCT116 cells in the logarithmic growth phase were seeded into a white-wall clear-bottom 96-well plate at a density of 720 cells per well, and cultured overnight in a 37° C., 5% CO2 incubator. […] After adding the drug, culturing was continued for 72 h in a 37° C., 5% CO2 incubator.
GraphPad Prism 7.0 was used to process the data, the cell inhibition rate curve was obtained and IC50 was calculated.

[2] = Metabolic stability in mouse liver microsomes; format: in vitro ADME; details: for CLint scaled at 1 µM / half-life at 1 µM / microsomal CLint at 1 µM: mouse; for CLint scaled at 1 µM / half-life at 1 µM: pH 7.4; for microsomal CLint at 1 µM: pH 7.4, read-out: CLint(mic)
Experimental: (§9) a. Preparation of phosphate buffer: The phosphate buffer powder was dissolved in 100 mL of pure water to prepare a phosphate buffer solution with a pH of 7.4 and a concentration of 100 mM, which was stored in a 4° C. refrigerator for later use.
(§10) b. All samples as well as the reference testosterone were dissolved in DMSO to obtain a 10 mM stock solution. The 10 mM stock solution was diluted to 100 μM with acetonitrile to obtain a working solution for later use.
(§11) c. Preparation of liver microsome working solution: Each of the mouse, rat and human liver microsome stock solutions (at concentration of 20 mg/mL) was taken and diluted to 0.56 mg/mL with 100 mM phosphate buffer solution to obtain the liver microsome working solution.
(§12) d. Preparation of solution: An appropriate amount of MgCl2 was weighed and used to prepare a MgCl2 solution at a concentration of 60 mM using 100 mM phosphate buffer solution. An appropriate amount of NADPH was weighed and used to prepare a NADPH solution at a concentration of 20 mM using 100 mM phosphate buffer solution. An equal volume of 60 mM MgCl2 solution was added to prepare an NADPH working solution containing 10 mM NADPH and 30 mM MgCl2. An acetonitrile solution containing 20 ng/mL tolbutamide was prepared as the stop solution.
(§13) e. Liver microsome incubation: 2 μL of each compound and the positive drug testosterone working solution were added to 178 μL of liver microsome working solution (0.56 mg/mL), mixed gently, and pre-incubated in a vibrating constant temperature water bath pot at 37° C. for 10 min. After adding 20 μL of NADPH working solution, the mixture was placed in a vibrating constant temperature water bath pot at 37° C. and timed incubation was started for 5, 10, 20, 30 and 60 min.
(§14) f. Stopping reaction: After the corresponding time of incubation, 400 μL of stop solution was added to stop the reaction, and then the sample was immediately shaken for 1 min. The sample was centrifuged at 13500 rpm for 10 min at 10° C. After centrifugation, the supernatant was removed, diluted with water according to the needs of each compound, and analyzed by LC-MS. For the 0-minute sample, the stop solution was first added and mixed evenly with the liver microsomes, and then the NADPH working solution was added. For the negative control sample, 20 μL of 30 mM MgCl2 solution was added instead of the NADPH working solution.
(§15) T1/2 and CLint(mic) were calculated by the following formula.
(§16) [formula] [formula] • CLint(mic)=0.693/T1/2/liver microsomal protein concentration during incubation (mg/mL) • CLint(ver)=CLint(mic)*liver microsomal protein (mg)/liver weight (g)*liver weight to body weight ratio
(§17) Liver microsomal protein (mg)/liver weight (g): the value is 45 in both animal and human species.
(§18) Liver weight to body weight ratio: the parameters for mice, rats and humans are 88, 40 and 20 g/kg respectively.

[3] = Metabolic stability in human liver microsomes; format: in vitro ADME; details: for CLint scaled at 1 µM / half-life at 1 µM / microsomal CLint at 1 µM: human; for CLint scaled at 1 µM / half-life at 1 µM: pH 7.4; for microsomal CLint at 1 µM: pH 7.4, read-out: CLint(mic)
Experimental: as §9, §10, §11, §12, §13, §14, §15, §16, §17, §18

[4] = Metabolic stability in rat liver microsomes; format: in vitro ADME; details: for CLint scaled at 1 µM / half-life at 1 µM / microsomal CLint at 1 µM: rat; for CLint scaled at 1 µM / half-life at 1 µM: pH 7.4; for microsomal CLint at 1 µM: pH 7.4, read-out: CLint(mic)
Experimental: as §9, §10, §11, §12, §13, §14, §15, §16, §17, §18

[5] = PLK1 kinase, highest concentration 1 μM, 10 points, read-out: IC50
[6] = HCT-116, HCT116 cells, 72 h, read-out: IC50

SMILES	efflux ratio at 120 min [1]	Papp at 120 min [1] [nm/s]	Papp A→B at 120 min [1] [nm/s]	Papp B→A at 120 min [1] [nm/s]	Classification Efflux transporter substrate (Caco-2 cells)	pIC50 (PLK1 kinase; [5])	Imax (PLK1 kinase) [%]	pIC50 (HCT116 cells; [6])	other results
CN1CCN(c2ccc(OC(F)(F)F)c(Nc3ncc4c(n3)-c3c(c(C(=O)NNC(N)=O)nn3C)CC4)c2)CC1 [Compound 12]	> 56.7	< 5	< 2.64	150	Likely (ERa ≥ 2.00)	–	–	–	60 min remaining amount [2]: 26.9%; Clearance rate [2]: Medium; CLint scaled at 1 µM [2]: 9.78 L/h/kg; half-life at 1 µM [2]: 33.6 min; microsomal CLint at 1 µM [2]: 41.2 µL/min/mg; 60 min remaining amount [3]: 70.8%; Clearance rate [3]: Medium; CLint scaled at 1 µM [3]: 0.624 L/h/kg; half-life at 1 µM [3]: 119 min; microsomal CLint at 1 µM [3]: 11.6 µL/min/mg; 60 min remaining amount [4]: 7.43%; Clearance rate [4]: High; CLint scaled at 1 µM [4]: 9.18 L/h/kg; half-life at 1 µM [4]: 16.3 min; microsomal CLint at 1 µM [4]: 85 µL/min/mg; pIC50 (HCT116 cells; HCT-116, 72 h): 6.06
CN1CCN(c2ccc(OC(F)(F)F)c(Nc3ncc4ccc5c(C(N)=O)nn(C)c5c4n3)c2)CC1 [Compound 3]	1.32	5 to 25	6.44	8.51	Very unlikely or not (ERa < 2.00)	–	99.57	–	60 min remaining amount [2]: 4.32%; Clearance rate [2]: High; CLint scaled at 1 µM [2]: 24.5 L/h/kg; half-life at 1 µM [2]: 13.4 min; microsomal CLint at 1 µM [2]: 103 µL/min/mg; 60 min remaining amount [3]: 7.83%; Clearance rate [3]: High; CLint scaled at 1 µM [3]: 4.72 L/h/kg; half-life at 1 µM [3]: 15.9 min; microsomal CLint at 1 µM [3]: 87.4 µL/min/mg; 60 min remaining amount [4]: 2.74%; Clearance rate [4]: High; CLint scaled at 1 µM [4]: 30.3 L/h/kg; half-life at 1 µM [4]: 4.94 min; microsomal CLint at 1 µM [4]: 281 µL/min/mg; pIC50 (PLK1 kinase): 9.15; pIC50 (HCT116 cells; HCT-116, 72 h): 7.03
CN1C2CCC1CN(c1ccc(OC(F)(F)F)c(Nc3ncc4c(n3)-c3c(c(C(N)=O)nn3CCO)CC4)c1)C2 [Compound 23]	> 82.6	< 5	< 2.8	231	Likely (ERa ≥ 2.00)	8.44	98.18	6.67	–

Second part, led by results:

efflux ratio at 120 min [1]	Papp at 120 min [1] [nm/s]	Papp A→B at 120 min [1] [nm/s]	Papp B→A at 120 min [1] [nm/s]	Classification Efflux transporter substrate (Caco-2 cells)	pIC50 (PLK1 kinase; [5])	Imax (PLK1 kinase) [%]	pIC50 (HCT116 cells; [6])	SMILES	other results
> 51.7	< 5	< 4.8	248	Likely (ERa ≥ 2.00)	8.94	99.92	7.31	CN1CCN(c2ccc(OC(F)(F)F)c(Nc3ncc4c(n3)-c3c(c(C(=O)NO)nn3CCO)CC4)c2)CC1 [Compound 10]	pIC50 (HCT116 cells; HCT-116, HCT116 cells, 72 h, read-out: half inhibitory concentration): 7.31
> 25.4	< 5	< 2.54	64.3	Likely (ERa ≥ 2.00)	6.49	72.68	< 5.00	CN1CCN(c2ccc(OC(F)(F)F)c(Nc3ncc4c(n3)-c3c(c(C(=O)NS(=O)(=O)C5CC5)nn3CCO)CC4)c2)CC1 [Compound 9]	–
22.1	5 to 25	11.3	250	Likely (ERa ≥ 2.00)	8.74	99.65	6.69	CN1CCN(c2ccc(OC(F)(F)F)c(Nc3ncc4c(n3)-c3c(c(C(=O)NOCCO)nn3C)CC4)c2)CC1 [Compound 11]	–
> 30.3	< 5	< 4.8	145	Likely (ERa ≥ 2.00)	7.83	95.96	5.47	CN1CCN(c2ccc(OC(F)(F)F)c(Nc3ncc4c(n3)-c3c(c(C(=O)NS(=O)(=O)C(F)(F)F)nn3CCO)CC4)c2)CC1 [Compound 8]	–
